Experimental data taken from the NIST ThermoML archive (doi:10.1016/j.jct.2018.05.008).

Test: mn = molality of the nth substance listed, in mol/kg
Conditions: 101.3 kPa, Liquid, Vibrating tube method

C[C@H](N)C(=O)O [(S)-2-aminopropanoic acid] + O
mass density [kg/m3]
Conditions | m1 = 0.0522 | m1 = 0.1036 | m1 = 0.2032 | m1 = 0.3122 | m1 = 0.3941 | m1 = 0.4964 | m1 = 0.5873 | m1 = 0.6752 | m1 = 0.791
288.15 K | 1000.63 | 1002.12 | 1004.98 | 1008.03 | 1010.29 | 1013.01 | 1015.47 | 1017.77 | 1020.75
298.15 K | 998.58 | 1000.04 | 1002.84 | 1005.84 | 1008.05 | 1010.78 | 1013.15 | 1015.38 | 1018.3
308.15 K | 995.56 | 997 | 999.75 | 1002.71 | 1004.9 | 1007.59 | 1009.93 | 1012.15 | 1015.04
310.15 K | 994.85 | 996.28 | 999.03 | 1001.99 | 1004.18 | 1006.87 | 1009.2 | 1011.4 | 1014.3
318.15 K | 991.74 | 993.17 | 995.9 | 998.84 | 1001 | 1003.68 | 1006.01 | 1008.22 | 1011.1

NCC(=O)O [2-aminoacetic acid] + O
mass density [kg/m3]
Conditions | m1 = 0.0602 | m1 = 0.1201 | m1 = 0.1992 | m1 = 0.3016 | m1 = 0.3854 | m1 = 0.4462 | m1 = 0.5271 | m1 = 0.6444 | m1 = 0.7856
288.15 K | 1001.04 | 1002.97 | 1005.49 | 1008.71 | 1011.3 | 1013.17 | 1015.62 | 1019.16 | 1023.32
298.15 K | 998.98 | 1000.87 | 1003.34 | 1006.49 | 1009.02 | 1010.84 | 1013.23 | 1016.66 | 1020.69
308.15 K | 995.95 | 997.8 | 1000.22 | 1003.32 | 1005.82 | 1007.61 | 1009.97 | 1013.36 | 1017.38
310.15 K | 995.25 | 997.1 | 999.51 | 1002.59 | 1005.07 | 1006.86 | 1009.22 | 1012.6 | 1016.6
318.15 K | 992.13 | 993.97 | – | 999.45 | 1001.91 | 1003.69 | 1006.03 | 1009.41 | 1013.42

O [water] + C[C@H](N)C(=O)O
m2 = 0
Conditions | mass density [kg/m3]
308.15 K | 994.08
310.15 K | 993.38
318.15 K | 990.27

C[C@@H](O)[C@H](N)C(=O)O [L-threonine] + O
mass density [kg/m3]
Conditions | m1 = 0.1926 | m1 = 0.2858 | m1 = 0.3869 | m1 = 0.4789 | m1 = 0.5872 | m1 = 0.6687
288.15 K | 1007.25 | 1011.08 | 1015.18 | 1018.78 | 1022.93 | 1026.01
298.15 K | 1005.04 | 1008.79 | 1012.82 | 1016.36 | 1020.45 | 1023.46
308.15 K | 1001.91 | 1005.62 | 1009.58 | 1013.09 | 1017.13 | 1020.1
310.15 K | 1001.19 | 1004.89 | 1008.86 | 1012.35 | 1016.39 | 1019.34
318.15 K | 998.01 | 1001.68 | 1005.6 | 1009.09 | 1013.09 | 1016.02

CCC(N)C(=O)O (stereo not drawn) [(.+-.)-α-aminobutyric acid] + O
mass density [kg/m3]
Conditions | m1 = 0.2006 | m1 = 0.4945 | m1 = 0.5944 | m1 = 0.6791 | m1 = 0.7812 | m1 = 0.8868 | m1 = 0.9902
288.15 K | 1004.67 | 1012.46 | 1015 | 1017.13 | 1019.67 | 1022.24 | 1024.71
298.15 K | 1002.5 | 1010.14 | 1012.62 | 1014.71 | 1017.19 | 1019.71 | 1022.13
308.15 K | 999.41 | 1006.94 | 1009.38 | 1011.44 | 1013.88 | 1016.36 | 1018.74
310.15 K | 998.69 | 1006.2 | 1008.64 | 1010.69 | 1013.12 | 1015.6 | 1017.97
318.15 K | 995.55 | 1003.01 | 1005.46 | 1007.5 | 1009.85 | 1012.32 | 1014.68

O [water] + CCC(N)C(=O)O
Conditions | mass density [kg/m3]
310.15 K, m2 = 0 | 993.32

O [water] + CCCCn1cc[n+](C)c1.[Br-]
m2 = 0
Conditions | mass density [kg/m3]
308.15 K | 994.07
310.15 K | 993.37
318.15 K | 990.26

O [water] + NCC(=O)O
m2 = 0
Conditions | mass density [kg/m3]
308.15 K | 994.07
310.15 K | 993.37
318.15 K | 990.26
